In patent US8906904B2, “Alkoxy pyrazoles as soluble guanylate cyclase activators” (Boehringer Ingelheim International GmbH, priority 2012, dated 2014):
In brackets after ≈: the same amount, converted by molar mass.

Experiment: Assessment of solubility (McIlvaine buffers, 24 h shake, UPLC-UV)
Format: physicochemical
Details: kinetic from dmso stock
Protocol: Solubility is measured by the following method.
100 uL, 10 mM DMSO stock solution of each compound is prepared in a 96 well plate format. The experiment is done in single determination at 3 pH values (2.2, 4.5 and 6.8). For each pH and one reference, 40 uL of each compound is needed.
McIlvaine pH 2.2: To 2.076 g citric acid monohydrate and 0.043 g Na2HPO4×2H2O add 100 ml deionized water
McIlvaine pH 4.5: To 1.166 g citric acid monohydrate and 1.585 g Na2HPO4×2H2O add 100 ml deionized water
McIlvaine pH 6.8: To 0.476 g citric acid monohydrate and 2.753 g Na2HPO4×2H2O add 100 ml deionized water
With a suitable liquid handling device (Multipette® or a liquid handler) 390 uL of each buffer solution and 10 uL of compound is added to each well of a 96 deep well plate. The plates are covered firmly and shaken for 24 h on an over head shaker (at 54 RPM) at room temperature. The DMSO content in the final buffer is 2.5% v/v.
After 24 h the plates are centrifuged to remove droplets on the lid before opening (for ˜5 min at 2500 RPM).
The filtration is done under vacuum with Millipore 96 well filter plate. Filtrate is collected in a deep well plate and transferred to a suitable plate for UPLC analysis.
The reference plate is prepared by adding 10 uL of compound to 390 uL of 50:50 acetonitrile/water in a 96 deep well plate and transferred to a suitable plate for UPLC analysis. Wells are checked visually for precipitation, any presence noted under comments in reported results.
The samples are measured with UPLC-UV using the chromatographic method described below.
Waters Empower®2 software is used for generating Sample Sets (according to the plate layout), Sample Set Methods and Instrument Methods.
One Sample Set comprises the methods for three 96 well plates (one reference plate and two sample plates, and includes one Sample Set Method and one Instrument Method).
3. Data Processing and Analysis
The UV chromatograms collected at 254 nm are integrated and processed.
It is assumed that the compound is completely dissolved in the reference solution (50:50 acetonitrile/water)

| Structure (SMILES) | solubility at 24 h (pH 2.2, aqueous buffer) | solubility at 24 h (pH 4.5, aqueous buffer) | solubility at 24 h (pH 6.8, aqueous buffer) |
| --- | --- | --- | --- |
| CCOc1c(C(=O)O)cnn1-c1cccc(-c2cccc(C)c2OCc2ccc3c(c2)OCCN(C2CCOCC2)C3)n1 [Compound 131] | 130 µg/mL (≈ 222 µM) | 97 µg/mL (≈ 166 µM) | 110 µg/mL (≈ 188 µM) |
| CCOc1c(C(=O)O)cnn1-c1cccc(-c2cccc(C)c2OCc2ccc3c(c2C)CCN([C@H]2CCOC2)C3)n1 [Compound 125] | 110 µg/mL (≈ 193 µM) | 76 µg/mL (≈ 134 µM) | 78 µg/mL (≈ 137 µM) |
| Cc1cccc(-c2cccc(-n3ncc(C(=O)O)c3OCC(C)C)n2)c1OCc1ccc2c(c1C)CCN(C1CCOCC1)C2 [Compound 134] | 110 µg/mL (≈ 180 µM) | 94 µg/mL (≈ 154 µM) | 100 µg/mL (≈ 164 µM) |
| COc1c(C(=O)O)cnn1-c1cccc(-c2cccc(C)c2OCc2ccc3c(c2C)CCN([C@H]2CCOC2)C3)n1 [Compound 105] | 93 µg/mL (≈ 168 µM) | 72 µg/mL (≈ 130 µM) | 75 µg/mL (≈ 135 µM) |
| CCOc1c(C(=O)O)cnn1-c1cccc(-c2cccc(C)c2OCc2ccc3c(c2)CCN(CC2CCCO2)C3)n1 (stereo not drawn) [Compound 101, 5-ethoxy-1-(6-{3-methyl-2-[2-(tetrahydro-furan-2-ylmethyl)-1,2,3,4-tetrahydro-isoquinolin-6-ylmethoxy]-phenyl}-pyridin-2-yl)-1H-pyrazole-4-carboxylic acid] | 90 µg/mL (≈ 158 µM) | 73 µg/mL (≈ 128 µM) | 74 µg/mL (≈ 130 µM) |
| CCOc1c(C(=O)O)cnn1-c1cccc(-c2cccc(C)c2OCc2ccc3c(c2)CCN(CC2CC(=O)N(C)C2)C3)n1 (stereo not drawn) [Compound 97, 5-ethoxy-1-(6-{3-methyl-2-[2-(1-methyl-5-oxo-pyrrolidin-3-ylmethyl)-1,2,3,4-tetrahydro-isoquinolin-6-ylmethoxy]-phenyl}-pyridin-2-yl)-1H-pyrazole-4-carboxylic acid] | 91 µg/mL (≈ 153 µM) | 72 µg/mL (≈ 121 µM) | 77 µg/mL (≈ 129 µM) |
| COc1c(C(=O)O)cnn1-c1cccc(-c2ccc(C)cc2OCc2ccc3c(c2C)CCN(C2CCOCC2)C3)n1 [Compound 99] | 150 µg/mL (≈ 264 µM) | 120 µg/mL (≈ 211 µM) | 110 µg/mL (≈ 193 µM) |
| CCOc1c(C(=O)O)cnn1-c1cccc(-c2cccc(C)c2OCc2cc3c(c(C(F)(F)F)c2)CN(C2CCOCC2)CC3)n1 [Compound 157] | 94 µg/mL (≈ 148 µM) | 70 µg/mL (≈ 110 µM) | 62 µg/mL (≈ 97.4 µM) |
| CCOc1c(C(=O)O)cnn1-c1cccc(-c2cccc(C)c2OCc2ccc3c(c2)CCN([C@H]2CCOC2)C3)n1 [Compound 110] | 130 µg/mL (≈ 234 µM) | 96 µg/mL (≈ 173 µM) | 120 µg/mL (≈ 216 µM) |
| COc1c(C(=O)O)cnn1-c1cccc(-c2cccc(C)c2OCc2cc(C)c3c(c2C)CN(C2CCOCC2)C3)n1 [Compound 145] | 110 µg/mL (≈ 193 µM) | 92 µg/mL (≈ 162 µM) | 94 µg/mL (≈ 165 µM) |
| Cc1cccc(-c2cccc(-n3ncc(C(=O)O)c3OC(C)C)n2)c1OCc1ccc2c(c1C)CCN(C1CCOCC1)C2 [Compound 104] | 110 µg/mL (≈ 184 µM) | 93 µg/mL (≈ 156 µM) | 97 µg/mL (≈ 163 µM) |
| CCOc1c(C(=O)O)cnn1-c1cccc(-c2cccc(C)c2OCc2ccc3c(c2C)CCN(C[C@H]2COCCO2)C3)n1 [Compound 170] | 120 µg/mL (≈ 200 µM) | 96 µg/mL (≈ 160 µM) | 95 µg/mL (≈ 159 µM) |
| COc1c(C(=O)O)cnn1-c1cccc(-c2cccc(C)c2OCc2cc(C)c3c(c2C)CCN(C2CCOCC2)C3)n1 [Compound 120] | 110 µg/mL (≈ 189 µM) | 94 µg/mL (≈ 161 µM) | 97 µg/mL (≈ 166 µM) |
| CCOc1c(C(=O)O)cnn1-c1cccc(-c2cccc(C)c2OCc2ccc3c(c2C)CCN(C(=O)C2CCOCC2)C3)n1 [Compound 147, 5-Ethoxy-1-(6-{3-methyl-2-[5-methyl-2-(tetrahydro-pyran-4-carbonyl)-1,2,3,4-tetrahydro-isoquinolin-6-ylmethoxy]-phenyl}-pyridin-2-yl)-1H-pyrazole-4-carboxylic acid] | 1.2 µg/mL (≈ 1.96 µM) | 3.1 µg/mL (≈ 5.08 µM) | 75 µg/mL (≈ 123 µM) |
| CCOc1c(C(=O)O)cnn1-c1cccc(-c2cccc(C)c2OCc2ccc3c(c2C)CCN(C2CCOCC2)C3)n1 [Compound 114] | 120 µg/mL (≈ 206 µM) | 99 µg/mL (≈ 170 µM) | 100 µg/mL (≈ 172 µM) |
| CCOc1c(C(=O)O)cnn1-c1cccc(-c2cccc(C)c2OCc2ccc3c(c2C)CN(C2CCOCC2)C3)n1 [Compound 119] | 110 µg/mL (≈ 193 µM) | 89 µg/mL (≈ 157 µM) | 97 µg/mL (≈ 171 µM) |
| COc1c(C(=O)O)cnn1-c1cccc(-c2cccc(C)c2OCc2ccc3c(c2C)CCN(C2COC2)CC3)n1 [Compound 176] | 100 µg/mL (≈ 180 µM) | 77 µg/mL (≈ 139 µM) | 43 µg/mL (≈ 77.5 µM) |
| CCOc1c(C(=O)O)cnn1-c1cccc(-c2cccc(C)c2OCc2ccc3c(c2C)CCN(C[C@H]2CCCOC2)C3)n1 [Compound 153] | 87 µg/mL (≈ 146 µM) | 67 µg/mL (≈ 112 µM) | 65 µg/mL (≈ 109 µM) |
| COc1c(C(=O)O)cnn1-c1cccc(-c2cccc(C)c2OCc2ccc3c(c2)CCN([C@H]2CC[C@@]4(CCCO4)CC2)C3)n1 [Compound 103] | 96 µg/mL (≈ 158 µM) | 78 µg/mL (≈ 128 µM) | 81 µg/mL (≈ 133 µM) |
| CCOc1c(C(=O)O)cnn1-c1cccc(-c2cccc(C)c2OCc2cc(C)c3c(c2)CCN(C2CCCOC2)C3)n1 (stereo not drawn) [Compound 173] | 130 µg/mL (≈ 223 µM) | 98 µg/mL (≈ 168 µM) | 97 µg/mL (≈ 166 µM) |
| COc1c(C(=O)O)cnn1-c1cccc(-c2cccc(C)c2OCc2ccc3c(c2)CCN(C(C)C)C3)n1 [Compound 13] | 100 µg/mL (≈ 195 µM) | 84 µg/mL (≈ 164 µM) | 87 µg/mL (≈ 170 µM) |
| COc1c(C(=O)O)cnn1-c1cccc(-c2cccc(C)c2OCc2ccc3c(c2)CCN(CC(F)(F)F)C3)n1 [Compound 11, 5-methoxy-1-(6-{3-methyl-2-[2-(2,2,2-trifluoro-ethyl)-1,2,3,4-tetrahydro-isoquinolin-6-ylmethoxy]-phenyl}-pyridin-2-yl)-1H-pyrazole-4-carboxylic acid] | 23 µg/mL (≈ 41.6 µM) | < 0.1 µg/mL | 80 µg/mL (≈ 145 µM) |
| CCOc1c(C(=O)O)cnn1-c1cccc(-c2cccc(C)c2OCc2ccc3c(c2C)CCN([C@H]2CCCOC2)C3)n1 [Compound 129] | 95 µg/mL (≈ 163 µM) | 79 µg/mL (≈ 136 µM) | 79 µg/mL (≈ 136 µM) |
| CCOc1c(C(=O)O)cnn1-c1cccc(-c2cccc(C)c2OCc2cc(C)c3c(c2)CN(C2CCOCC2)C3)n1 [Compound 118] | 110 µg/mL (≈ 193 µM) | 84 µg/mL (≈ 148 µM) | 92 µg/mL (≈ 162 µM) |
| COc1c(C(=O)O)cnn1-c1cccc(-c2cccc(C)c2OCc2cc3c(cc2C)CN(C2CCOCC2)CC3)n1 [Compound 121] | 110 µg/mL (≈ 193 µM) | 90 µg/mL (≈ 158 µM) | 93 µg/mL (≈ 164 µM) |
| CCOc1c(C(=O)O)cnn1-c1cccc(-c2cccc(C)c2OCc2ccc3c(c2C)CCN(CCOCCO)C3)n1 [Compound 168] | 110 µg/mL (≈ 187 µM) | 90 µg/mL (≈ 153 µM) | 88 µg/mL (≈ 150 µM) |
| CCOc1c(C(=O)O)cnn1-c1cccc(-c2cccc(C)c2OCc2ccc3c(c2C)CCN(CC2CCOC(C)(C)C2)C3)n1 (stereo not drawn) [Compound 163] | 110 µg/mL (≈ 176 µM) | 75 µg/mL (≈ 120 µM) | 73 µg/mL (≈ 117 µM) |
| COCCOc1c(C(=O)O)cnn1-c1cccc(-c2cccc(C)c2OCc2ccc3c(c2C)CCN(C2CCOC2)C3)n1 (stereo not drawn) [Compound 150] | 100 µg/mL (≈ 167 µM) | 67 µg/mL (≈ 112 µM) | 78 µg/mL (≈ 130 µM) |
| CCOc1c(C(=O)O)cnn1-c1cccc(-c2cccc(C)c2OCc2ccc3c(c2C)CCN(C2COC(C)(C)OC2)C3)n1 [Compound 155] | 60 µg/mL (≈ 97.9 µM) | 66 µg/mL (≈ 108 µM) | 73 µg/mL (≈ 119 µM) |
| Cc1cccc(-c2cccc(-n3ncc(C(=O)O)c3OC(C)C)n2)c1OCc1ccc2c(c1)CCN([C@@H]1CCCOC1)C2 [Compound 113] | 94 µg/mL (≈ 161 µM) | 80 µg/mL (≈ 137 µM) | 84 µg/mL (≈ 144 µM) |
